This note sets out measurements from patent publication US5585382A, “Polycyclic and heterocyclic chromophores for bis-imide tumoricidals” (The DuPont Merck Pharmaceutical Company, priority 1995, dated 1996).

Structures are written as SMILES. ≈ marks a conversion by molar mass, not a printed value. Where two headings read alike, the source gives them in different places.

Series [1] concerns Murine leukemia L1210 cells. Nature of the series: In vitro growth inhibition of L1210 cells (MTT, 72 hr). In kind it is cell-based. As to conditions: Mus musculus, read-out: L1210 IC50. The protocol:
(§1) The reagents for tissue culture were purchased from GIBCO (Grand Island, N.Y.). 5-Dimethylthiazol-2-yl)-2,5-diphenyl tetrazolium bromide (MTT) was purchased from Sigma Chemical Company (St. Louis, Mo.). All agents were prepared as 2 mg/ml stock solutions in DMSO. MTT was prepared as a 1 mg/ml stock solution in Dulbecco's phosphate buffered saline (PBS). All stocks were stored frozen in the dark at -20° C.
(§2) Clone A human colon cancer cells were isolated from the heterogeneous DLD-1 colon tumor line and maintained as previously described (Dexter, D. L.; Barbosa, J. A.; Calabresi, P. Cancer Research 1979, 39, 1020; Dexter, D. L.; Spremulli, E. M.; Fligiel, A.; Barbosa, J. A.; Vogel, R.; Van Vorhees, A.; Calabresi, P. Am. J. Med. 1981, 71, 949.). Murine leukemia L1210 cells were maintained in RPMI-L medium as described (Chen, S.-F.; Ruben, R. L.; Dexter, D. L. Cancer Research 1986, 46, 5014.). All cell lines were incubated at 37° C. in a humidified atmosphere of 5% CO2 -95% air.
(§3) Exponentially growing L1210 cells (1×10^3), or Clone A cells (8×10^2) in 0.1 ml medium were seeded in a 96-well microtiter plate on day 0. On day one, 0.1 ml aliquots of medium containing graded concentrations of test compounds were added to the cell plates. After incubation at 37° C. in a humidified incubator for 72 hr, the plates containing L1210 cells were centrifuged briefly and 100 μl of the growth medium was removed. Cell cultures were incubated with 50 μl of MTT for 4 h at 37° C. (12). The resulting purple formazan precipitate was solubilized with 200 μl of 0.04 N HCl in isopropyl alcohol. Absorbance was read in a Titertek Multiskan MCC scanning well spectrophotometer (Flow Laboratories) at a test wavelength of 570 nm and a reference wavelength of 630 nm. The absorbances were stored on a floppy disk on an IBM-XT and uploaded onto a VAX computer. IC50 values were determined by a computer program that fit the data to the following equation:
(§4) Y=((Am -Ao)/(1+(X/IC50)^n))+Ao
(§5) where Am =absorbance of the control cells; Ao =absorbance of the cells in the presence of highest compound concentration; Y=observed absorbance; X=compound concentration; IC50 =dose of compound that inhibits the number of population doublings of cells to one half that of the number of population doublings of the control cells; and n equals the slope of the straight portion of the curve.
(§6) The values reported in the table are from at least one experiment performed in eight replicates. If more than one experiment was performed, the number reported is the average of all the trials

Series [2] is described as follows: Solubility in water.
The subject of series [3] is Clone A human colon cancer cells. Nature of the series: In vitro growth inhibition of Clone A cells (MTT, 72 hr). Type of series: cell-based. As to conditions: read-out: Clone A IC50. The method, then:
as §1, §2, §3, §4, §5, §6

Series [4] has as its system MX-1 human mammary carcinoma. Nature of the series: In vivo human tumor xenograft MX-1 in nude mice. As to conditions: for Tumor Growth Inhibition activity against MX-1 (in words): NCI criteria. The text has this: The DLD-2 human colon tumor and MX-1 human mammary carcinoma, were originally obtained from a surgically-removed primary colon carcinoma or breast tumor respectively. The human tumor lines were maintained by serial passage in athymic nude mice. The MX-1 human mammary carcinoma is an established tumor used by the NCI. The DLD-2 human colon tumor has been well characterized. (Dexter, D. L.; Spremulli, E. N.; Matook, G. M.; Diamond, I.; Calabresi, P. Cancer Research 1982, 42, 5010; Dexter, D. L.; Barbosa, J. A.; Calabresi, P. Cancer Research 1979, 39, 1020.)
The mice used in these experiments were outbred Swiss mice or CD-1 mice bearing the nude (nu/nu) gene. On Day 0, male and female mice weighing 22-30 g are inoculated with 0.2 mL of a 25% tumor mince. This mince is prepared by mincing fresh tumor tissue, grown subcutaneously in passage mice, in sterile physiological saline. Palpable tumors weighing approximately 50 mg appear in the mice within 7-10 days after inoculation. The mice are pair matched by tumor weight and sex into groups of ten each and the test compounds and vehicle control are administered intravenously (i.v.) once daily for nine consecutive days. A >20% decrease in body weight on Day 5 following compound administration is considered an indication of toxicity. Tumor measurements and body weights are recorded once a week. Fifteen to eighteen days after the initial injection the mice are weighed, sacrificed, and the tumors excised and weighed.
The efficacy of the test compounds is determined by the extent of tumor growth inhibition in treated versus vehicle-treated control mice. Initial tumor weights (mg) are calculated from the tumor dimensions (mm) obtained from caliper measurements, using the formula for a prolate ellipsoid (mg of tumor weight=(length×width^2)/2). Net tumor weights are calculated for each of the treated groups and the vehicle-treated control group by subtracting the initial tumor weight from the final tumor weight (Day 15-18). Results are expressed as a percentage decrease relative to the mean tumor weight for the control vehicle-treated group.
Tumor Growth Inhibition= [formula]
The evaluation criteria of the National Cancer Institute for activity in in vivo cancer models were used. Tumor growth inhibition of 58-89% against the various xenografts is considered moderate activity, and inhibition of ≥90% is considered good to excellent activity. Actual tumor regressions (IR=incomplete regression; FR=full regression) indicate excellent to outstanding activity.
On the technique in general: Xenograft models place foreign cells or tissue in a host animal.

The mark [5] stands for this setting: Mus musculus, iv, 216 h, i.v. once daily for nine days, nude mice, read-out: MX-1 percent tumor growth inhibition.
[6] abbreviates: Mus musculus, iv, 216 h, read-out: MX-1 percent tumor growth inhibition.
Where [7] appears, read: i.v. once daily for nine days, nude mice.
Where [8] appears, read: Mus musculus, iv, 216 h, read-out: MX-1 tumor regressions, IR=incomplete regression.

One may read the IC50 as the point on the concentration scale where inhibition reaches its midpoint. Usually solubility stands for the concentration that dissolves in the medium under given conditions. The low end stands for little dissolved substance, the high end for much dissolved substance. Turning to `CS(=O)(=O)O.O=C1c2ccccc2C(=O)c2c1cc1c3c(cccc23)C(=O)N(CCCCNCCCN2C(=O)c3cccc4c5c(cc(c34)C2=O)C(=O)c2ccccc2C5=O)C1=O` [Example 100, 4-[3-(7,12-Dihydro-7,12-dioxobenz[a]anthracene-4,5-dicarboximido)propylamino]-1-(7,12-dihydro-7,12-dioxobenz[a]anthracene-4,5-dicarboximido)butane Hydromethanesulfonate], the IC50 in series [1] (L1210 cells, 72 hr, MTT) turned out to be 0.014 µg/mL; in series [3] (Clone A cells, 72 hr, MTT) it was 0.07 µg/mL. For the same molecule, the solubility in series [2] is 160 µg/mL. Moreover, in series [4] (Mus musculus, iv, 216 h, 20 mg/kg, i.v. once daily for nine days, nude mice, read-out: MX-1 percent tumor growth inhibition), the inhibition in vivo at 20 mg/kg is 24%.

In the case of `Cc1cnc2c(c1)cc1c3c(cc([N+](=O)[O-])cc32)C(=O)N(CCNCCNCCN2C(=O)c3cc([N+](=O)[O-])cc4c3c(cc3cc(C)cnc34)C2=O)C1=O` [Example 23], the IC50 in series [1] (L1210 cells, 72 hr, MTT) is 0.042 µg/mL (≈ 0.0578 µM); in series [3] (Clone A cells, 72 hr, MTT), 0.043 µg/mL (≈ 0.0592 µM). Besides, the solubility in series [2] stood at 120 µg/mL (≈ 165 µM). Further, the inhibition in vivo at 25 mg/kg in series [4] (setting [5]) worked out at 0%.

With `CS(=O)(=O)O.CS(=O)(=O)O.O=C1c2cc([N+](=O)[O-])cc3c2c(cc2cccnc23)C(=O)N1CCNCCNCCN1C(=O)c2cc([N+](=O)[O-])cc3c2c(cc2cccnc23)C1=O` [Example 6, 1,2-bis-[2-(3-Nitro-5-azaphenanthrene-1,10-dicarboximido)ethylamino]ethane Dihydromethanesulfonate], the IC50 in series [1] (L1210, 72 h) was 0.041 µg/mL; in series [3] (72 h), 0.005 µg/mL. In addition, in series [2], the solubility was 330 µg/mL. Further, the inhibition in vivo at 12.5 mg/kg in series [4] (setting [6]) came out at 81%. In addition, the “Tumor Growth Inhibition activity against MX-1 (in words)” value (from here on “Tumor Growth Inhibition activity”) in series [4] (setting [7]) was “moderate to excellent”.

In the case of `CS(=O)(=O)O.CS(=O)(=O)O.Cc1cnc2c(c1)cc1c3c(cc([N+](=O)[O-])cc32)C(=O)N([C@H](C)CNCCNC[C@@H](C)N2C(=O)c3cccc4cc([N+](=O)[O-])cc(c34)C2=O)C1=O` [Example 117, (R,R)-1-[2-(3-Nitro-7-methyl-5-azaphenanthrene-1, 10-dicarboximido)propylamino]-2-[2-(3-nitronaphthalene-1,8-dicarboximido)propylamino]ethane Dihydromethanesulfonate], the IC50 was determined as 0.036 µg/mL in series [1] (L1210, 72 h) and 0.002 µg/mL in series [3] (72 h). In series [2], this molecule gave a solubility of 8700 µg/mL. The responders at 6 mg/kg in series [4] (setting [8]) was 100%. In addition, the “Tumor Growth Inhibition activity” value in series [4] (setting [7]) is given as “moderate to excellent”.

Turning to `Cc1cnc2c(c1)cc1c3c(cc([N+](=O)[O-])cc32)C(=O)N(C[C@H](C)NCCN[C@@H](C)CN2C(=O)c3cc([N+](=O)[O-])cc4c3c(cc3cc(C)cnc34)C2=O)C1=O` [Example 26], the IC50 is 0.018 µg/mL (≈ 0.0238 µM) in series [1] (L1210, 72 h) and 0.012 µg/mL (≈ 0.0159 µM) in series [3] (72 h). Besides, the inhibition in vivo at 6.2 mg/kg in series [4] (setting [6]) came out at 22%.

For `CS(=O)(=O)O.CS(=O)(=O)O.C[C@@H](CN1C(=O)c2cc([N+](=O)[O-])cc3c2c(cc2cccnc23)C1=O)NCCN[C@@H](C)CN1C(=O)c2cc([N+](=O)[O-])cc3c2c(cc2cccnc23)C1=O` [Example 20, (S,S)-1,2-bis-[2-(3-Nitro-5-azaphenanthrene-1, 10-dicarboximido)-1-methylethylamino]ethane Dihydromethanesulfonate], the IC50 in series [1] (L1210, 72 h) amounted to 0.012 µg/mL. The solubility in series [2] is 3330 µg/mL. In addition, the inhibition in vivo at 6.2 mg/kg in series [4] (setting [6]) was 95%. For the same molecule, the responders at 6.2 mg/kg in series [4] (setting [8]) was 11.1%. In addition, the “Tumor Growth Inhibition activity” value in series [4] (setting [7]) is on record as “moderate to excellent”.

Consider `CS(=O)(=O)O.O=C1c2cccc3c2c(cc2ccoc23)C(=O)N1CCCCNCCCN1C(=O)c2cccc3c2c(cc2ccoc23)C1=O` [Example 80, 4-[3-(Naphtho[1,2-b]furan-5,6-dicarboximido)propylamino]-1-(naphtho[1,2-b]furan-5,6-dicarboximido)butane Hydromethanesulfonate], for which the IC50 in series [1] (L1210 cells, 72 hr, MTT) came to 0.389 µg/mL; in series [3] (Clone A cells, 72 hr, MTT), 0.635 µg/mL. Moreover, the solubility in series [2] came out at 420 µg/mL.

In the case of `Cc1cnc2c(c1)cc1c3c(cc([N+](=O)[O-])cc32)C(=O)N(CCCNCCN2C(=O)c3cc([N+](=O)[O-])cc4c3c(cc3cc(C)cnc34)C2=O)C1=O` [Example 22], the IC50 in series [1] (L1210 cells, 72 hr, MTT) was found to be 0.02 µg/mL (≈ 0.0287 µM); in series [3] (Clone A cells, 72 hr, MTT) it was 0.003 µg/mL (≈ 0.0043 µM). The solubility in series [2] stood at 30 µg/mL (≈ 43 µM). In series [4] (setting [5]), the inhibition in vivo at 25 mg/kg amounted to 0%.

In the case of `CS(=O)(=O)O.CS(=O)(=O)O.CS(=O)(=O)O.Cc1nc2cc3c4c(cccc4c2[nH]1)C(=O)N(CCCCNCCCN1C(=O)c2cccc4c2c(cc2nc(C)[nH]c24)C1=O)C3=O` [Example 81, 4-[3-(2-Methyl-1H-naphth[1,2-d]imidazole-5,6-dicarboximido)propylamino]-1-(2-methyl-1H-naphth[1,2-d]imidazole-5,6-dicarboximido)butane Trihydromethanesulfonate], the 50% inhibitory concentration (IC50) in series [1] (L1210 cells, 72 hr, MTT) came to 0.201 µg/mL; in series [3] (Clone A cells, 72 hr, MTT), 22.2 µg/mL. Also, in series [2], the solubility stood at 7600 µg/mL.

`CCc1ccc2cc3c4c(cccc4c2c1)C(=O)N(CCCCNCCCN1C(=O)c2cccc4c2c(cc2ccc(CC)cc24)C1=O)C3=O.CS(=O)(=O)O` [Example 47, 4-[3-(6-Ethylphenanthrene-1, 10-dicarboximido)propylamino]-1-(6-ethylphenanthrene-1, 10-dicarboximido)butane Hydromethanesulfonate]: the IC50 turned out to be 0.378 µg/mL in series [1] (L1210, 72 h) and 0.763 µg/mL in series [3] (72 h). The same molecule came in with a solubility in series [2] of 150 µg/mL.

In the case of `C[C@H](CNC[C@@H](C)N1C(=O)c2cc([N+](=O)[O-])cc3c2c(cc2cccnc23)C1=O)NC[C@@H](C)N1C(=O)c2cc([N+](=O)[O-])cc3c2c(cc2cccnc23)C1=O` [Example 21], the concentration for half-maximal inhibition (IC50) in series [1] (L1210 cells, 72 hr, MTT) was found to be 0.042 µg/mL (≈ 0.0567 µM); in series [3] (Clone A cells, 72 hr, MTT) it was 0.005 µg/mL (≈ 0.00675 µM). The concentration in solution in series [2] (solubility) was 7700 µg/mL (≈ 10400 µM).

On to `CS(=O)(=O)O.Cc1nc2cc3c4c(cccc4c2s1)C(=O)N(CCCCNCCCN1C(=O)c2cccc4c2c(cc2nc(C)sc24)C1=O)C3=O` [Example 82, 4-[3-(2-Methylnaphtho[2,1-d]thiazole-5,6-dicarboximido)propylamino]-1-(2-methylnaphtho[2,1-d]thiazole-5,6-dicarboximido)butane Hydromethanesulfonate], for which the IC50 in series [1] (L1210 cells, 72 hr, MTT) was found to be 0.082 µg/mL; in series [3] (Clone A cells, 72 hr, MTT), 0.068 µg/mL. In addition, the solubility in series [2] was found to be 4500 µg/mL.
